# Test results as given in patent publication US9061076B2, “Viral nanoparticle cell-targeted delivery platform” (North Carolina State University, priority 2007, dated 2015).
# B1: PVN-CAR-F: native RCNMV conjugated via SMCC with fluorescein-labeled CAR targeting peptide (conjugate)
# chain: LSITTPEEMIEKAKGETAYLPCKFTLSPEDQGPLDIEWLISPADNQKVDQVIILYSGDKIYDDYYPDLKGRVHFTSNDLKSGDASINVTNLQLSDIGTYQCKVKKAPGVANKKIHLVVLVKPSGARCYVDGSEEIGSDFKIKCEPKEGSLPLQYEWQKLSDSQKMPTSWLAEMTSSVISVKNASSEYSGTYSCTVRNRVGSDQCLLRLNVVPPSNKAGLIAGAIIGTLLALALIGLIIFCCRKKRREEKYEKEVHHDIREDVPPPKSRTSTARSYIGSNHSSLGSMSPSNMEGYSKTQYNQVPSEDFERTPQSPTLPPAKVAAPNLSRMGAIPVMIPAQSKDGSIV
# Tests used:
# [1] = tested on: HeLa cells; test: MTT cell viability assay; format: cell-based; details: 7 uM DOX, 24 hours
# Method: The effect of DOX-PVN-CD46 on cell viability was measured using an MTT assay (FIG. 10A). HeLa cells were exposed to a free DOX, DOX-PVN, and DOX-PVN-CD46 for 24 hours at DOX concentrations ranging from 0.01 uM to 12 uM prior assaying. […] On the other hand, the percentage of viable cell was approximately 70-80% when the same concentration of free DOX (7 uM) was delivered to the cells. […] The PVN has two desirable properties as a drug delivery platform. First, it sequesters drugs effectively in blood and other biofluids. Second, it delivers drugs inside cells triggered by divalent ion concentration and with a timed release that increases the efficacy of drugs that rely on interactions with DNA. FACS was used to determine the dose-response of DOX-PVN-CD46-F after a 2-hour exposure (FIG. 10B). Cell detachment is an early sign of apoptosis. One method to determining cell survival is to count the number of adherent cells. At a PVN concentration of 1 pM, the number of adherent cells is reduced by approximately 25% (FIG. 10B). The FACS experiments in the lower panel of FIG. 10B counts only the adherent cells. Thus, the reduction in viable (adherent) cells accounts for the low levels of PVN internalization measured by fluorescence intensity. The number of adherent cells decreases to 50% at a DOX-PVN-CD46-F concentration of 100 μM (data not shown).
# [2] = tested on: HeLa cells; test: PVN internalization by FACS / fluorescent microscopy; format: cell-based
# Method: Flow cytometry measurements were carried out with the Becton Dickinson FACSCalibur® running Cellquest Pro. Flow cytometry is sometimes referred to as “FACS” herein. The positive population of cells is determined by gating the right-hand tail of the distribution of the negative control sample for each individual cell line at 1%. This setting can then used to determine the percentage of positive cells for each of the above markers for each individual cell line.
# We have observed that PVNs with targeting peptides attached to the surface can be internalized into mammalian cells. […] Surface coverage can be determined in a fluorometer using a fluorescein standard curve to quantify the number of fluorophores in the sample and the UV-vis spectrum to quantify the concentration of RCNMV. Based on the measured fluorescence, we determined that the surface of the PVN was labeled with approximately 60 CD46-F peptides. The endocytosis of these formulations was detected using fluorescent microscopy and FACS. FACS quantifies PVN cellular uptake and cargo release in a two-channel fluorescence measurement on populations of hundreds of thousands of cells. […]
Molecule,percentage of viable cells [1],internalization in HeLa versus HepG2 cell lines [2]
"COc1cccc2c1C(=O)c1c(O)c3c(c(O)c1C2=O)C[C@@](O)(C(=O)CO)C[C@@H]3O[C@H]1C[C@H](N)[C@H](O)[C@H](C)O1 [DOX, doxorubicin]",70-80%,–
B1,–,nearly the same level of internalization
